Experimental data: publication PMC6743335 (Journal of the American Chemical Society, 2018)

Target: T1, human ATR (adenosyltransferase) (Homo sapiens, UniProt Q96EY8)
T1 sequence (Q96EY8 33-250 limits assumed): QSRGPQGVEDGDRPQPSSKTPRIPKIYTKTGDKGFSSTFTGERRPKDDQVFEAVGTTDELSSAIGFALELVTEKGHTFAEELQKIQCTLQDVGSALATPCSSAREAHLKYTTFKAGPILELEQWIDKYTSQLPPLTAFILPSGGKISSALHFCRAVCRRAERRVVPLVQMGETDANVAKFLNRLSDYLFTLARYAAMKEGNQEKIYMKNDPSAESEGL
Test: binding, method in supplement
Details: ATP in the third site of the crystal with Mg

Compound: Nc1ncnc2c1ncn2[C@@H]1O[C@H](COP(=O)(O)OP(=O)(O)OP(=O)(O)O)[C@@H](O)[C@H]1O [ATP]
- Kd: Electron density for AdoCbl was observed in two active sites
